Among the data in ChEMBL document CHEMBL1275581, “Detection of the pandemic O25-ST131 human virulent Escherichia coli CTX-M-15-producing clone harboring the qnrB2 and aac(6')-Ib-cr genes in a dog” (2009) are MIC and Activity values, retold here.

The subject of experiment [1] is Escherichia coli. Briefly: Antimicrobial activity against beta-lactamase CTX-M-15-producing fluoroquinolone-resistant Escherichia coli FMV5825 expressing qnrB2 and aac(6')-Ib-cr and harboring gyrA Ser83Ile and Asp87Asn mutant gene and ParC Ser80Ile and Glu84Val mutant gene obtained from dog with urinary tract infection by broth microdilution method. The experiment is classed as functional. Background: Broth dilution looks for growth in wells or tubes with falling amounts of substance.

The test system of experiment [2] is Escherichia coli. The experiment can be described thus: Antimicrobial activity against Azide-resistant Escherichia coli J53 by broth microdilution method. The experiment is classed as functional.
For experiment [3], the system named is Escherichia coli. Briefly: microbe, parasite or virus in culture. Conditions: J53.
Experiment [4] concerns Escherichia coli. The experiment can be described thus: Antimicrobial activity against Escherichia coli harboring qnr gene assessed as resistant isolate. The experiment is classed as functional.
Experiment [5] deals with Escherichia coli. The experiment can be described thus: Antimicrobial activity against beta-lactamase CTX-M-15-producing fluoroquinolone-resistant Escherichia coli FMV5825 expressing qnrB2 and aac(6')-Ib-cr and harboring gyrA Ser83Ile and Asp87Asn mutant gene and ParC Ser80Ile and Glu84Val mutant gene obtained from dog with urinary tract infection by broth microdilution method in presence of beta-lactamase inhibitor Tazobactam. Format: functional. The following applies: FMV5825, Urine.

In experiment [6] the test system is Escherichia coli. The experiment can be described thus: Antimicrobial activity against Azide-resistant Escherichia coli J53 transconjugant harboring Escherichia coli DH5alpha-5825 qnrB2 gene by broth microdilution method in presence of beta-lactamase inhibitor Tazobactam. The experiment is classed as functional.
Experiment [7] has as its system Escherichia coli. The experiment can be described thus: Antimicrobial activity against Azide-resistant Escherichia coli J53 by broth microdilution method in presence of beta-lactamase inhibitor Tazobactam. Format: functional.
Experiment [8] relates to Escherichia coli. Briefly: Antimicrobial activity against beta-lactamase CTX-M-15-producing fluoroquinolone-resistant Escherichia coli FMV5825 expressing qnrB2 and aac(6')-Ib-cr and harboring gyrA Ser83Ile and Asp87Asn mutant gene and ParC Ser80Ile and Glu84Val mutant gene obtained from dog with urinary tract infection by broth microdilution method in presence of beta-lactamase inhibitor clavulanic acid. The following applies: FMV5825, Urine. The experiment is classed as functional.

The test system of experiment [9] is Escherichia coli. Briefly: Antimicrobial activity against Azide-resistant Escherichia coli J53 transconjugant harboring Escherichia coli DH5alpha-5825 qnrB2 gene by broth microdilution method in presence of beta-lactamase inhibitor clavulanic acid. The experiment is classed as functional.
In experiment [10] the test system is Escherichia coli. The experiment can be described thus: Antimicrobial activity against Azide-resistant Escherichia coli J53 by broth microdilution method in presence of beta-lactamase inhibitor clavulanic acid. Format: functional.

In brackets after ≈: the same amount, converted by molar mass.

In the case of `CC1(C)S[C@@H]2[C@H](NC(=O)[C@H](N)c3ccccc3)C(=O)N2[C@H]1C(=O)O` [AMPICILLIN], the MIC against Escherichia coli [1] (FMV5825, Urine) is over 16 µg/mL; against Escherichia coli [2], at most 4 µg/mL; with Escherichia coli [3], over 16 µg/mL.
`O=C(O)c1cn(C2CC2)c2cc(N3CCNCC3)c(F)cc2c1=O` [CIPROFLOXACIN] displayed an MIC against Escherichia coli [1] (FMV5825, Urine) of 128 µg/mL (≈ 386 µM). Further, the Activity in the experiment on Escherichia coli [4] stood at 26%.
In the case of `CO/N=C(\C(=O)N[C@@H]1C(=O)N2C(C(=O)[O-])=C(C[N+]3(C)CCCC3)CS[C@H]12)c1csc(N)n1`, the MIC in the experiment on Escherichia coli [1] (FMV5825, Urine) was over 16 µg/mL; with Escherichia coli [2], at most 1 µg/mL; against Escherichia coli [3], over 16 µg/mL.
Regarding `CC1(C)S[C@@H]2[C@H](NC(=O)[C@H](C(=O)O)c3ccsc3)C(=O)N2[C@H]1C(=O)O` [TICARCILLIN], the MIC was over 64 µg/mL in the experiment with Escherichia coli [1] (FMV5825, Urine); at most 16 µg/mL in the experiment on Escherichia coli [2]; over 64 µg/mL in the experiment on Escherichia coli [3].
`CCN1CCN(C(=O)N[C@@H](C(=O)N[C@@H]2C(=O)N3[C@@H]2SC(C)(C)[C@@H]3C(=O)O)c2ccccc2)C(=O)C1=O` [PIPERACILLIN]: the MIC in the experiment with Escherichia coli [1] (FMV5825, Urine) was over 64 µg/mL; in the experiment on Escherichia coli [5], at most 8 µg/mL; with Escherichia coli [6], at most 8 µg/mL; with Escherichia coli [2] it was at most 8 µg/mL; in the experiment on Escherichia coli [7] it was at most 8 µg/mL; in the experiment on Escherichia coli [3], over 64 µg/mL.
Consider GENTAMICIN, for which the MIC amounted to 32 µg/mL against Escherichia coli [1] (Urine) and 0.25 µg/mL with Escherichia coli [2].
`COCC1=C(C(=O)O)N2C(=O)[C@@H](NC(=O)/C(=N\OC)c3csc(N)n3)[C@H]2SC1` [CEFPODOXIME]: the MIC in the experiment on Escherichia coli [1] (FMV5825, Urine) is over 4 µg/mL; in the experiment with Escherichia coli [2], at most 1 µg/mL; with Escherichia coli [3], over 4 µg/mL.
Take `C[C@@H](O)[C@H]1C(=O)N2C(C(=O)O)=C(S[C@@H]3CN[C@H](C(=O)N(C)C)C3)[C@H](C)[C@H]12` [MEROPENEM]: the MIC against Escherichia coli [1] (FMV5825, Urine) was at most 2 µg/mL; against Escherichia coli [2] it was at most 2 µg/mL; in the experiment with Escherichia coli [3], at most 2 µg/mL.
Regarding `Cc1nnc(SCC2=C(C(=O)O)N3C(=O)[C@@H](NC(=O)Cn4cnnn4)[C@H]3SC2)s1` [CEFAZOLIN], the MIC was over 16 µg/mL against Escherichia coli [1] (FMV5825, Urine); at most 16 µg/mL against Escherichia coli [2]; over 16 µg/mL in the experiment on Escherichia coli [3].
For `C[C@H]1COc2c(N3CCN(C)CC3)c(F)cc3c(=O)c(C(=O)O)cn1c23.C[C@H]1COc2c(N3CCN(C)CC3)c(F)cc3c(=O)c(C(=O)O)cn1c23.O` [LEVOFLOXACIN], the MIC in the experiment with Escherichia coli [1] (FMV5825, Urine) was found to be 32 µg/mL; in the experiment with Escherichia coli [2], 0.031 µg/mL; with Escherichia coli [3], 0.031 µg/mL.
In the case of `NCC[C@H](O)C(=O)N[C@@H]1C[C@H](N)[C@@H](O[C@H]2O[C@H](CN)[C@@H](O)[C@H](O)[C@H]2O)[C@H](O)[C@H]1O[C@H]1O[C@H](CO)[C@@H](O)[C@H](N)[C@H]1O` [AMIKACIN], the MIC in the experiment on Escherichia coli [1] (FMV5825, Urine) was determined as 16 µg/mL (≈ 27.3 µM); against Escherichia coli [2], 0.5 µg/mL (≈ 0.854 µM); against Escherichia coli [3] it was 2 µg/mL (≈ 3.42 µM).
Taken in the same sequence, the figures for `C[C@@H](O)[C@H]1C(=O)N2C(C(=O)O)=C(SCCNC=N)C[C@H]12` [IMIPENEM ANHYDROUS] were at most 1 µg/mL, at most 1 µg/mL and at most 1 µg/mL.
In the same order, the values of `CO/N=C(\C(=O)N[C@@H]1C(=O)N2C(C(=O)O)=C(COC(N)=O)CS[C@H]12)c1ccco1` [CEFUROXIME] are over 16 µg/mL, 1 µg/mL (≈ 2.36 µM) and over 16 µg/mL.
Turning to `CO[C@@]1(NC(=O)C2SC(=C(C(N)=O)C(=O)O)S2)C(=O)N2C(C(=O)O)=C(CSc3nnnn3C)CS[C@@H]21` (some centres not stated) [CEFOTETAN], the MIC in the experiment on Escherichia coli [1] (FMV5825, Urine) was at most 16 µg/mL; with Escherichia coli [2] it was at most 16 µg/mL; against Escherichia coli [3], at most 16 µg/mL.
As for `CC1(C)S[C@@H]2[C@H](NC(=O)[C@H](N)c3ccc(O)cc3)C(=O)N2[C@H]1C(=O)O` [AMOXICILLIN], the MIC in the experiment on Escherichia coli [8] is 8 µg/mL; in the experiment with Escherichia coli [9], 8 µg/mL; with Escherichia coli [10], 2 µg/mL.
Consider `CO/N=C(\C(=O)N[C@@H]1C(=O)N2C(C(=O)O)=C(COC(C)=O)CS[C@H]12)c1csc(N)n1` [CEFOTAXIME], for which the MIC with Escherichia coli [1] (FMV5825, Urine) was over 64 µg/mL; in the experiment with Escherichia coli [8], at most 0.25 µg/mL; in the experiment with Escherichia coli [9], at most 0.25 µg/mL; in the experiment on Escherichia coli [2], at most 1 µg/mL; with Escherichia coli [10], at most 0.25 µg/mL; with Escherichia coli [3] it was over 64 µg/mL.
Consider `NC[C@H]1O[C@H](O[C@H]2[C@H](O)[C@@H](O[C@H]3O[C@H](CO)[C@@H](O)[C@H](N)[C@H]3O)[C@H](N)C[C@@H]2N)[C@H](N)C[C@@H]1O` [TOBRAMYCIN], for which the MIC against Escherichia coli [1] (FMV5825, Urine) is over 8 µg/mL; against Escherichia coli [2], at most 2 µg/mL; in the experiment with Escherichia coli [3] it was over 8 µg/mL.
As for `CO[C@@]1(NC(=O)Cc2cccs2)C(=O)N2C(C(=O)O)=C(COC(N)=O)CS[C@@H]21` [CEFOXITIN], the MIC against Escherichia coli [1] (FMV5825, Urine) is at most 4 µg/mL; in the experiment on Escherichia coli [2], at most 4 µg/mL; with Escherichia coli [3], at most 4 µg/mL.
With `CCn1cc(C(=O)O)c(=O)c2ccc(C)nc21` [NALIDIXIC ACID], the MIC is over 256 µg/mL in the experiment with Escherichia coli [1] (FMV5825, Urine); 4 µg/mL (≈ 17.2 µM) in the experiment with Escherichia coli [2]; 16 µg/mL (≈ 68.9 µM) in the experiment with Escherichia coli [3]. For the same molecule, the Activity in the experiment on Escherichia coli [4] is listed as 34%.
For `C[C@H]1[C@H](NC(=O)/C(=N\OC(C)(C)C(=O)O)c2csc(N)n2)C(=O)N1S(=O)(=O)O` [AZTREONAM], the MIC with Escherichia coli [1] (FMV5825, Urine) was over 16 µg/mL; in the experiment with Escherichia coli [2] it was at most 1 µg/mL; against Escherichia coli [3], over 16 µg/mL.
Regarding `CC(C)(O/N=C(\C(=O)N[C@@H]1C(=O)N2C(C(=O)[O-])=C(C[n+]3ccccc3)CS[C@H]12)c1csc(N)n1)C(=O)O` [CEFTAZIDIME], the MIC with Escherichia coli [1] (FMV5825, Urine) was 128 µg/mL (≈ 234 µM); in the experiment on Escherichia coli [8] it was at most 0.25 µg/mL; with Escherichia coli [9], at most 0.25 µg/mL; with Escherichia coli [2] it was at most 1 µg/mL; with Escherichia coli [10], at most 0.25 µg/mL; with Escherichia coli [3], 64 µg/mL (≈ 117 µM).
As for `C[C@@H](O)[C@H]1C(=O)N2C(C(=O)O)=C(S[C@@H]3CN[C@H](C(=O)Nc4cccc(C(=O)O)c4)C3)[C@H](C)[C@H]12`, the MIC against Escherichia coli [1] (FMV5825, Urine) is at most 0.5 µg/mL; against Escherichia coli [2], at most 0.5 µg/mL; against Escherichia coli [3], at most 0.5 µg/mL.
In the case of `CCn1cc(C(=O)O)c(=O)c2cc(F)c(N3CCNCC3)cc21` [NORFLOXACIN], the MIC with Escherichia coli [1] (FMV5825, Urine) worked out at 256 µg/mL (≈ 802 µM); against Escherichia coli [2] it was 0.062 µg/mL (≈ 0.194 µM); against Escherichia coli [3], 0.5 µg/mL (≈ 1.57 µM).
